We go through 23 molecules from PubChem BioAssay AID330 (DTP/NCI, 2004).

The test system of the experiment is P388 leukemia ip, CD2F1 mice, survival T/C. Kind of experiment: NCI In Vivo Anticancer Drug Screen. Data for tumor model P388 Leukemia (intraperitoneal) in CD2F1 (CDF1) mice. Particulars: endpoint: median survival time, higher = longer survival. The gist of the method: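 Mice carrying the transplanted tumor received test compound or vehicle. Survival was recorded in each group, and the value is the treated-group measurement divided by that of the vehicle-treated control group.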

The mark [1] stands for this setting: dose: 7.5 mg/kg/injection, schedule: Q01DX005 (ip), vehicle: Klucel (hydroxypropylcellulose) (HPC).
[2] abbreviates: dose: 15.0 mg/kg/injection, schedule: Q01DX005 (ip), vehicle: Klucel (hydroxypropylcellulose) (HPC).
Where [3] appears, read: dose: 30.0 mg/kg/injection, schedule: Q01DX005 (ip), vehicle: Klucel (hydroxypropylcellulose) (HPC).
Where [4] appears, read: dose: 25.0 mg/kg/injection, schedule: Q01DX009 (ip), vehicle: saline with Tween-80.
Where [5] appears, read: dose: 50.0 mg/kg/injection, schedule: Q01DX009 (ip), vehicle: saline with Tween-80.
Setting [6] is: dose: 100.0 mg/kg/injection, schedule: Q01DX009 (ip), vehicle: saline with Tween-80.
[7] abbreviates: dose: 50.0 mg/kg/injection, schedule: Q01DX009 (ip), vehicle: saline.
The mark [8] stands for this setting: dose: 100.0 mg/kg/injection, schedule: Q01DX009 (ip), vehicle: saline.
Setting [9] is: dose: 200.0 mg/kg/injection, schedule: Q01DX009 (ip), vehicle: saline.
[10] abbreviates: dose: 60.0 mg/kg/injection, schedule: Q01DX005 (ip), vehicle: saline with Tween-80.
The mark [11] stands for this setting: dose: 120.0 mg/kg/injection, schedule: Q01DX005 (ip), vehicle: saline with Tween-80.
The mark [12] stands for this setting: dose: 12.5 mg/kg/injection, schedule: Q01DX009 (ip), vehicle: saline with Tween-80.
The mark [13] stands for this setting: dose: 50.0 mg/kg/injection, schedule: Q01DX009 (ip), vehicle: Klucel (hydroxypropylcellulose) (HPC).
The mark [14] stands for this setting: dose: 100.0 mg/kg/injection, schedule: Q01DX009 (ip), vehicle: Klucel (hydroxypropylcellulose) (HPC).
Setting [15] is: dose: 200.0 mg/kg/injection, schedule: Q01DX009 (ip), vehicle: Klucel (hydroxypropylcellulose) (HPC).
Where [16] appears, read: dose: 25.0 mg/kg/injection, schedule: Q01DX009 (ip), vehicle: Klucel (hydroxypropylcellulose) (HPC).
[17] abbreviates: dose: 240.0 mg/kg/injection, schedule: Q01DX005 (ip), vehicle: saline with Tween-80.

“And” between values parts separate entries of the source, which are not always exact repeats. Identical values can stand only once. Inconclusive results and toxic doses are left out.

Consider `Cc1ccc(C)n1-c1ccsc1C(=O)NNC(=O)CCl`, for which the T/C by setting is: under setting [1], 101 % of control; under setting [2], 99 % of control; under setting [3], 100 % of control.
In the case of `CC12C(=O)C=CCC1=CCC1C2CCC2(O)C(=O)OC3(C)C4CC5(C)C(COC16OC23C5C6=O)C(=O)O4` (centres undefined), the T/C is, setting by setting: under setting [4], 96 % of control; under setting [5], 110 % of control; under setting [6], 120 % of control; (dose: 150.0 mg/kg/injection, schedule: Q01DX009 (ip), vehicle: Klucel (hydroxypropylcellulose) (HPC)) 121 % of control.
Consider `CC(N)C(=O)NC(CC(=O)O)C(=O)O` (centres undefined), for which the T/C was 95 % of control (dose: 12.5 mg/kg/injection, schedule: Q01DX009 (ip), vehicle: saline); 86 % of control (dose: 25.0 mg/kg/injection, schedule: Q01DX009 (ip), vehicle: saline); 90 % of control under setting [7]; 94 % of control under setting [8]; 92 % of control under setting [9].
For the molecule `CNc1ccc(C=C2c3ccccc3-c3ccccc32)cc1`, the T/C (dose: 12.5 mg/kg/injection, schedule: Q01DX001 (ip), vehicle: saline with Tween-80) was 102 % of control; the T/C (dose: 25.0 mg/kg/injection, schedule: Q01DX001 (ip), vehicle: saline with Tween-80) is 105 % of control; the T/C (dose: 50.0 mg/kg/injection, schedule: Q01DX001 (ip), vehicle: saline with Tween-80) was 112 % of control; the T/C (dose: 100.0 mg/kg/injection, schedule: Q01DX001 (ip), vehicle: saline with Tween-80) was 106 % of control.
As to `CC(N)CN1CC(C)N=C1c1ccncc1` (centres undefined), the T/C is, setting by setting: under setting [7], 102 % of control; under setting [8], 98 % of control; under setting [9], 99 % of control.
Regarding `COC(=O)Nc1nc2ccc(C3(c4ccc(F)cc4)OCCO3)cc2[nH]1`, the T/C is 103 % of control (dose: 25.0 mg/kg/injection, schedule: Q01DX009 (oral), vehicle: saline); 119 % of control (dose: 50.0 mg/kg/injection, schedule: Q01DX009 (oral), vehicle: saline); 168 % of control (dose: 50.0 mg/kg/injection, schedule: Q04DX003 (ip), vehicle: saline); 155 % of control and 192 % of control (dose: 60.0 mg/kg/injection, schedule: Q04DX003 (ip), vehicle: saline); 208 % of control (dose: 70.0 mg/kg/injection, schedule: Q04DX003 (ip), vehicle: saline).
As to `CNCC(C(=O)c1ccccc1)C(=O)c1ccccc1`, the T/C (dose: 50.0 mg/kg/injection, schedule: Q01DX005 (ip), vehicle: saline with Tween-80) is 95 % of control; the T/C (dose: 100.0 mg/kg/injection, schedule: Q01DX005 (ip), vehicle: saline with Tween-80) is 101 % of control; the T/C (dose: 200.0 mg/kg/injection, schedule: Q01DX005 (ip), vehicle: saline with Tween-80) was 110 % of control.
Take `COC(=O)c1nc(N)nc(C(=O)OC)c1C(=O)C(C)C`: the T/C runs as follows: under setting [10], 97 % of control; under setting [11], 98 % of control.
Take `CN(C)c1ccc(C2OC3(CCCCC3)C[N+]23CCCC3)cc1` (centres undefined): the T/C is 100 % of control (dose: 3.12 mg/kg/injection, schedule: Q01DX009 (ip), vehicle: saline with Tween-80); 104 % of control (dose: 6.25 mg/kg/injection, schedule: Q01DX009 (ip), vehicle: saline with Tween-80); 86 % of control under setting [12].
`Cc1ccc(S(=O)(=O)C2(Sc3ccccc3)SC2C(=O)c2ccccc2)cc1` (centres undefined): the T/C runs as follows: under setting [13], 99 % of control; under setting [14], 105 % of control; under setting [15], 111 % of control.
As to `CC(C)c1ccc(C(CC(=O)c2ccccc2)C(C(=O)O)c2ccc([N+](=O)[O-])cc2)cc1` (centres undefined), the T/C reads like this: under setting [13], 105 % of control; under setting [14], 103 % of control; under setting [15], 104 % of control.
In the case of `CC(=O)OC1C(O)C(C)OC(OC2C(OC(=O)C3CCC4C(C3)OC3(CC(OC(=O)/C=C/c5ccccc5)C(C)CO3)C43CO3)OC(C)C(O)C2OC(C)=O)C1O` (centres undefined), the T/C by setting is: (dose: 0.25 mg/kg/injection, schedule: Q01DX009 (ip), vehicle: saline) 91 % of control; (dose: 0.5 mg/kg/injection, schedule: Q01DX009 (ip), vehicle: saline) 100 % of control; (dose: 1.0 mg/kg/injection, schedule: Q01DX009 (ip), vehicle: saline + alcohol) 113 % of control; (dose: 1.0 mg/kg/injection, schedule: Q01DX009 (ip), vehicle: saline) 110 % of control; (dose: 2.0 mg/kg/injection, schedule: Q01DX009 (ip), vehicle: saline + alcohol) 119 % of control; (dose: 2.0 mg/kg/injection, schedule: Q01DX009 (ip), vehicle: saline) 117 % of control. In addition, the T/C (dose: 4.0 mg/kg/injection, schedule: Q01DX009 (ip), vehicle: saline + alcohol) is 124 % of control.
Regarding `CN(C)C=Nc1cc(Cl)c(Cl)cc1Cl`, the T/C is 108 % of control under setting [12], 106 % of control under setting [4] and 106 % of control under setting [5].
As for `O=C1OCCC12C(c1ccccc1)C1(CCOC1=O)C2c1ccccc1` (centres undefined), the T/C (dose: 1.87 mg/kg/injection, schedule: Q01DX005 (ip), vehicle: Klucel (hydroxypropylcellulose) (HPC)) is 94 % of control; the T/C (dose: 3.75 mg/kg/injection, schedule: Q01DX005 (ip), vehicle: Klucel (hydroxypropylcellulose) (HPC)) is 94 % of control; the T/C under setting [1] is 86 % of control; the T/C (dose: 60.0 mg/kg/injection, schedule: Q01DX005 (ip), vehicle: Klucel (hydroxypropylcellulose) (HPC)) is 86 % of control; the T/C (dose: 240.0 mg/kg/injection, schedule: Q01DX005 (ip), vehicle: Klucel (hydroxypropylcellulose) (HPC)) was 94 % of control.
As to `CC(C)(Cc1ccccc1)C(=C=C=C=C(c1ccccc1)C(C)(C)Cc1ccccc1)c1ccccc1`, the T/C by setting is: under setting [16], 101 % of control; under setting [13], 99 % of control; under setting [14], 92 % of control.
For `CCCCN(CCCC)CC(O)c1cc(-c2ccc(Cl)cc2)nc(-c2ccc(Cl)cc2)c1` (centres undefined), the T/C under setting [12] is 90 % of control; the T/C under setting [4] was 90 % of control; the T/C under setting [5] is 92 % of control and 93 % of control; the T/C under setting [6] is 90 % of control.
Regarding `O=C1CCCN1C(=O)C1CC1`, the T/C by setting is: (dose: 50.0 mg/kg/injection, schedule: Q01DX001 (ip), vehicle: saline) 100 % of control; (dose: 100.0 mg/kg/injection, schedule: Q01DX001 (ip), vehicle: saline) 109 % of control; (dose: 200.0 mg/kg/injection, schedule: Q01DX001 (ip), vehicle: saline) 100 % of control.
Regarding `CCCCCCCCCc1cc(=O)n(-c2ccc(C(=O)OCC)cc2)n1C`, the T/C under setting [13] was 104 % of control, the T/C under setting [14] was 90 % of control and the T/C under setting [15] is 93 % of control.
Turning to `O=C(c1ccccc1)N1OCCc2ccccc21`, the T/C by setting is: under setting [10], 100 % of control; under setting [11], 104 % of control; under setting [17], 96 % of control.
As to `CCn1c(=O)[nH]c(=O)c2[nH]c(Cl)nc21`, the T/C by setting is: (dose: 16.0 mg/kg/injection, schedule: Q01DX009 (ip), vehicle: Klucel (hydroxypropylcellulose) (HPC)) 103 % of control; under setting [16], 105 % of control; (dose: 32.0 mg/kg/injection, schedule: Q01DX009 (ip), vehicle: Klucel (hydroxypropylcellulose) (HPC)) 107 % of control; under setting [13], 91 % of control; (dose: 64.0 mg/kg/injection, schedule: Q01DX009 (ip), vehicle: Klucel (hydroxypropylcellulose) (HPC)) 102 % of control; under setting [14], 93 % of control.
With `O=C1CCN=C2C(=O)c3ccccc3C(O)=C12`, the T/C is 115 % of control under setting [16], 123 % of control under setting [13] and 121 % of control under setting [14].
Turning to `CCN(CC)CCOC(=O)c1ccc(N=NC2Sc3nc4ccccc4n3C2=O)cc1` (centres undefined), the T/C is 92 % of control under setting [1], 96 % of control under setting [2] and 96 % of control under setting [3].
Consider `CS/C(=N\S(=O)(=O)c1ccccc1)NNC(=O)c1c(-c2c(Cl)cccc2Cl)noc1C`, for which the T/C under setting [10] is 100 % of control, the T/C under setting [11] is 100 % of control and the T/C under setting [17] was 91 % of control.
